SMILES strings stand for the structures. Values after ≈ are worked out from the molar mass of the structure shown.

The test system of test [1] is three classes of fungi other than Oomycetes. To be noted: Strobel et al. (1999); inhibition of mycelial growth; cited from earlier work.
Test [2] has as its system S. sclerotiorum sclerotia. Description: Viability of recovered sclerotia. It is filed as cell-based, Sclerotinia sclerotiorum. The procedure: The sclerotia were placed in 100 ml of deionized water for 10 minutes and subsequently. washed with running deionized water for 10 minutes. They were then transferred onto moistened filter paper in sealed Petri dishes and placed under light conditions suitable for induction of apothecial formation. […] These sclerotia were surface disinfected in 70% ethanol for 2 minutes, rinsed in sterile deionized water, bisected, transferred to PDA in Petri dishes, and observed for mycelial growth after 5 days.
All the preparations were prepared in such a way that their relative concentrations corresponded to those of the bacterial culture, i.e. 1.5×10^9 cfu ml^−1 (non-diluted), 0.75×10^9 cfu ml^−1 (diluted 1:1) and 0.375×10^9 cfu ml^−1 (diluted 1:3), and their apothecial suppressive activity was compared to the effect of such bacterial cultures tested simultaneously. Three Petri plates per treatment were used with sclerotia treated with deionized water, 50, 25 and 12, 5% strength TSB and 1, 0.5 and 0.25% methanol (MeOH) in deionized water, as controls. Inclusion of methanol controls reflected residual concentrations of methanol in the ethyl acetate extratct and aqueous phase. The suppression of apothecial formation after the treatment with various culture preparations was transformed to values of apothecia formed per one sclerotium as a percentage of water control. Sclerotia with suppressed apothecial formation were retrieved and their viability was tested as described above (Example 8).

Test [3] has as its system S. sclerotiorum ascospores. Description: Suppression of spore germination - microtiter plate assay 1. It is filed as cell-based, Sclerotinia sclerotiorum. The procedure: (§1) To obtain the A. fumigatus conidiospores, the fungus was grown on ME slants for about 2 weeks at 28° C. The F. culmorum and F. oxysporum conidia, the H. annosum basidiospores, the M. canis macroconidia were produced by inoculating fungal plugs on Corn Meal Agar plates (CMA, Difco Ltd.), Hagem Agar plates (5 g glucose, 5 g ME, 0.5 g NH4NO3, 0.5 g KH2PO4, 0.5 g MgSO4×7H2O, 20 g Agar in 1000 ml deionized H2O) and Oat Meal Agar plates (60 g oat meal, 12.5 g Agar in 1000 ml deionized H2O), respectively, for a period of 5 to 10 days at 25° C. Ascospores of S. sclerotiorum were collected during their dispersal from apothecia by entrapping them on the surface of a water agar (12 g Bacto Agar (Difco Ltd)), 1000 ml H2O). Mature spores were then scraped off or washed out from the surface of the agar plates, with 0,5% Bacto Peptone (Difco Ltd) supplemented with 0.01% Tween 80. The P. ultimum sporangia were obtained by. growing the fungus on grass blades (Martin, 1992). The C. albicans stock culture of 1.0×10^6 cfu ml^−1 was prepared from a 24-hours old culture grown on Yeast Malt Agar plates (YM Agar, Difco Ltd) at 37° C. by suspending it in 0.5% Bacto Peptone and adjusting the optical density of this culture to an absorbance of 0.5 at 600 nm. The spore concentration was counted by using a Bürker chamber, and stock spore suspensions were stored at −70 ° C. for further use. The spore concentrations in respective stock suspensions, as well as the spore concentrations and media to culture fungi in a microtiter plate assay, are listed in Table 2 below.
(§2) To follow the activity during purification, HPLC-fractions to be tested were directly collected to 96-well microtiter plates by using a fraction collector (FC 204, Gilson), and mainly the activity to inhibit the germination of F. culmorum conidia and S. sclerotiorum ascospores was tested. […] The solvents were always evaporated, and one hundred μl of spore suspension, suspended in the appropriate media as listed in Table 2, were then distributed into each well. Depending on the fungus tested, the spore germination was monitored after 24 to 96 hours of incubation at 25° C. in darkness except for A. fumigatus and C. albicans which were incubated at 28 ° C. and 37 ° C. Controls were spores suspended in respective culturing media and culturing media only. All tests were done in triplicate and repeated at least twice.
(§3) The activity of haterumalide A, B and E, and of pyrrolnitrin to inhibit the spore germination of A. fumigatus, F. culmorum, F. oxysporum, H. annosum, M. canis, P. ultimum and S. sclerotiorum as well as the inhibition of the C. albicans growth was tested by using the microtiter plate assay 1 described in Example 7. The effect on apothecial formation of S. sclerotiorum sclerotia was assayed by using microtiter plate assay 2 described in Example 7.

The subject of test [4] is M. canis macroconidia. The test is described as above. The format is cell-based, Microsporum canis var. canis. The note with it: Microsporum canis, read-out: Minimal Inhibitory Concentration (MIC) to totally inhibit spore germination. The procedure: as §1, §2
The activity of haterumalide A, B and E, and of pyrrolnitrin to inhibit the spore germination of A. fumigatus, F. culmorum, F. oxysporum, H. annosum, M. canis, P. ultimum and S. sclerotiorum as well as the inhibition of the C. albicans growth was tested by using the microtiter plate assay 1 described in Example 7. […]

For test [5], the system named is S. sclerotiorum sclerotia. Put plainly: Suppression of apothecial formation - microtiter plate assay 2. It is filed as cell-based, Sclerotinia sclerotiorum. The note with it: S. sclerotiorum; qualitative. The procedure:
Twenty four-well microtiter plates were used to test the effect of the purified metabolites on apothecial formation in a concentration range between 0.01 μg ml^−1 and 100 μg ml^−1. To obtain respective concentrations of tested metabolites, the appropriate volume out of the respective metabolite stock solutions of 100 μg ml^−1, 10 μg ml^−1 and 1 μg ml^−1, dissolved in acetonitrile, was distributed into the wells and the solvent was then evaporated. Thereupon, the metabolites were dissolved in sterile H2O and one, or in some tests two, preconditioned sclerotia were placed into each well. Tests were done in triplicate and controls were sclerotia placed in sterile water only.
as §3

Test [6] deals with F. oxysporum conidia. Put plainly: Suppression of spore germination - microtiter plate assay 1. The format is cell-based. The note with it: Fusarium oxysporum, read-out: Minimal Inhibitory Concentration (MIC) to totally inhibit spore germination. The procedure: as §1, §2, §3
In test [7] the test system is H. annosum basidiospores. The description is as above. It is filed as cell-based. To be noted: Heterobasidion annosum, read-out: Minimal Inhibitory Concentration (MIC) to totally inhibit spore germination. The procedure:
as §1, §2, §3

Test [8] relates to P. ultimum sporangia. The test is described as above. It is filed as cell-based. The note with it: Globisporangium ultimum, read-out: Minimal Inhibitory Concentration (MIC) to totally inhibit spore germination. The procedure:
as §1, §2, §3

Test [9] concerns A. fumigatus conidiospores. The description is as above. To be noted: Aspergillus fumigatus, read-out: Minimal Inhibitory Concentration (MIC) to totally inhibit spore germination. The format is cell-based. The procedure:
as §1, §2, §3

Test [10] relates to F. culmorum conidia. The test is described as above. The format is cell-based. To be noted: Fusarium culmorum, read-out: Minimal Inhibitory Concentration (MIC) to totally inhibit spore germination. The procedure: as §1, §2, §3
Test [11] has as its system S. sclerotiorum mycelium. Description: Suppression of S. sclerotiorum mycelial growth, susceptibility test discs on PDA. It is filed as cell-based, Sclerotinia sclerotiorum. The procedure:
For testing effects of haterumalide A, halves of surface sterilized and bisected sclerotia were placed in the center PDA plates (9 cm in diameter) to initiate mycelial growth of S. sclerotiorum. The metabolite, at a concentration from 0.05 to 5 μg ml^−1 diluted in MeOH/H2O (1:1), was then spotted directly onto sterile antimicrobial susceptibility test discs (Oxoid Ltd) located at four equidistant places, giving a total of 0.2 to 20 μg ml^−1 compound per one Petri plate. The treatments were performed in triplicate. Zones of inhibition of mycelial growth were measured after 4 days and reduction of mycelial growth was calculated as a percentage of MeOH/H2O controls.

With `CC(=O)O[C@H]1CC(=O)OC2CC(CC/C(Cl)=C/C/C=C\1C)O[C@H]2[C@H](O)/C=C(\C)CC(=O)O` (stereo partly shown) [Haterumalide A], the “activity against three classes of fungi other than Oomycetes” value in test [1] is “little or no activity”. For the same molecule, the “mycelial growth of retrieved sclerotia on PDA plates” value was “no mycelial growth” in test [2] (sclerotia treated with 10 μg ml^−1); “produced mycelium” in test [2] (sclerotia treated with 3 and 5 μg ml^−1). Moreover, in test [2] (sclerotia treated with 0.5 and 1 μg ml^−1), the “apothecial formation of retrieved sclerotia on moistened filter paper” value was “produced apothecia”. Moreover, in [2] (sclerotia treated with 3 to 10 μg ml^−1), the “carpogenic germination of retrieved sclerotia” value is “total inhibition”. Further, the “inhibition of ascospore germination” value in [3] (S. sclerotiorum, qualitative) was “ability to inhibit”. The MIC was determined as 0.8 µg/mL (≈ 1.7 µM) in [3] (Sclerotinia sclerotiorum, read-out: Minimal Inhibitory Concentration (MIC) to totally inhibit spore germination); 15 µg/mL (≈ 31.9 µM) in test [4]; 0.8 µg/mL (≈ 1.7 µM) in test [6]; 35 µg/mL (≈ 74.3 µM) in test [7]; 0.4 µg/mL (≈ 0.849 µM) in test [8]; 5 µg/mL (≈ 10.6 µM) in test [9]. In test [10], the MIC was 2 µg/mL (≈ 4.25 µM). In test [5], the “inhibition of apothecial formation of sclerotia” value is recorded as “ability to inhibit”. Besides, the “inhibition of mycelial growth of S. sclerotiorum” value in [11] (0.05 to 0.1 μg ml^−1 per disc, 4 days) is reported as “did not inhibit”. For the same molecule, the “inhibition of mycelial growth” value in test [11] (S. sclerotiorum, qualitative) is reported as “ability to inhibit”.
